Laboratory results taken from paper PMC12312386, “Multiple transactivation domains of EZH2 bind to the TAZ2 domain of p300 and stimulate the acetyltransferase function of p300” (Biochemical Journal, 2025).
No end group written: not given here.

Columns and labels:
GST-p300TAZ2 = experiment: Mass photometry (MP) of GST-p300TAZ2 with EZH2TAD constructs; assay type: binding, human
Protocol: [37]. […] After induction with isopropyl b-D-1-thiogalactopyranoside (IPTG), harvesting, and lysis in buffer [50 mM Tris pH 7.0, 1 M NaCl, 5 mM dithiothreitol (DTT), 1 mM phenylmethanesulfonylfluoride (PMSF) and DNase] by sonication, the proteins were purified on glutathione agarose beads (Pierce) and eluted with buffer containing reduced L-glutathione (Fisher). The GST tag was either cleaved with TEV protease overnight at 22°C or kept intact during subsequent purification steps. […] The EZH2TAD1 ([…]) construct was generated by deletion using Q5 Hot Start High-Fidelity kit (NEB) and confirmed by DNA sequencing. Both constructs were expressed in E. coli Rosetta-2 (DE3) pLysS cells grown in LB media and induced at an OD600 of 0.6-0.8 with 1 mM IPTG for 16 h at 16°C. Cells were harvested by centrifugation, suspended in buffer (50 mM Tris pH 7.5, 500 mM NaCl, 1% CHAPS, 2 mM DTT, 1 mM PMSF, Roche cOmplete Protease Inhibitor Cocktail, and DNase), and lysed by sonication. […] When necessary, EZH2TAD constructs were further purified using a Superdex 200 Increase 10/300 GL column (Cytiva) with monitoring at 205 and 280 nm. […] To overcome the minimum size limit, a GST-fusion construct was used for one of the components in each sample. […] Ten microliter of each sample was loaded into the sample wells of the silicon cassettes assembled onto MassGlass UC coverslips (Refeyn, Ltd.). […]

[1] = target: T1, p300TAZ2 (TAZ2 domain of p300) (Homo sapiens, UniProt Q09472, A1723W); experiment: Microscale thermophoresis (MST) binding of p300TAZ2-His to EZH2 TAD peptides; details: direct binding, p300TAZ2-6×His labeled RED-tris-NTA, 10 nM; 25 mM Tris pH 7.5, 150 mM NaCl, 2.5 mM DTT; 1:1 stoichiometry; average ± SD of three (EZH2TAD2, EZH2TAD3) or four (EZH2TAD1) independent measurements
T1 construct: Human p300TAZ2 [aa 1722–1812, pGEX-4T-1 vector with an additional tobacco etch virus (TEV) cleavage site]; GST (pGEX-4T-1, TEV site) (N, cleaved yes); made in house; host or cells: Escherichia coli Rosetta-2 (DE3) pLysS
T1 sequence (Q09472 1722-1812 A1723W): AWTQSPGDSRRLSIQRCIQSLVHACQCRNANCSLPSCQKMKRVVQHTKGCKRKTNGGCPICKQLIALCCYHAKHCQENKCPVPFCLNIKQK
Protocol: After induction with isopropyl b-D-1-thiogalactopyranoside (IPTG), harvesting, and lysis in buffer [50 mM Tris pH 7.0, 1 M NaCl, 5 mM dithiothreitol (DTT), 1 mM phenylmethanesulfonylfluoride (PMSF) and DNase] by sonication, the proteins were purified on glutathione agarose beads (Pierce) and eluted with buffer containing reduced L-glutathione (Fisher). The GST tag was either cleaved with TEV protease overnight at 22°C or kept intact during subsequent purification steps. Both GST- and His-tagged proteins, as well as untagged p300TAZ2, were further purified by cation exchange (HiTrap SP HP, Cytiva) or heparin affinity chromatography (HiTrap Heparin HP, Cytiva).
MST experiments were carried out on a Monolith NT.115 instrument (NanoTemper). All experiments were performed using SEC-purified p300TAZ2-6×His protein in 25 mM Tris pH 7.5 buffer, 150 mM NaCl, and 2.5 mM DTT. p300TAZ2-6×His was labeled using a His-Tag Labeling Kit RED-tris-NTA (2nd Generation, NanoTemper) and kept constant at 10 nM. Dissociation constants were determined using a direct binding assay in which peptide was varied in concentration by serial dilution of discrete samples. The measurements were performed at 50% LED and medium MST power with 3-s pre-laser time, 20-s laser on-time, and 1-s off-time.

[2] = tested on: FLAG-HA-tagged p300 catalytic core (aa 1035–1830 of p300); experiment: Histone acetyltransferase (HAT) assay, Western blot, recombinant nucleosome substrate; assay type: biochemical; details: 1 μg p300 core, 2.5, 5 or 10 μg GST-tagged TADs, 1 μg nucleosome, 100 mM acetyl-CoA, 50 mM Tris-HCl pH 8.0, 30°C, 15 min
Protocol: Histone acetyltransferase assay
For HAT assays, FLAG-HA-tagged p300 core (aa 1035–1830 of p300) in a pCDH vector was expressed in 293 T cells for two days. Cells were lysed in lysis buffer (50 mM Tris-HCl pH 7.5, 300 mM NaCl, 1.5 mM MgCl2, 1 mM EDTA, 1% Triton100, 10% glycerol, 1 mM PMSF, and protease inhibitors) and sonicated. Cell lysates were incubated with anti-Flag M2 beads (Sigma) at 4° for 4 h. The beads were then washed three times with buffer (50 mM Tris-HCl pH 7.5, 500 mM NaCl, 1.5 mM MgCl2, 0.2 mM EDTA, 0.1% NP40, 10% glycerol, and 1 mM PMSF), and the protein was eluted with elution buffer (50 mM Tris-HCl pH 7.5, 300 mM NaCl, 1 mM DTT, 10% glycerol, and 0.4 mg/ml Flag peptide). […]
Purified FLAG-HA-tagged p300 catalytic core fragment (1 μg) was incubated with increasing amounts of GST-tagged EZH2TADs and GST-tagged EZH1TADs (2.5, 5, or 10 μg) and the nucleosome (1 μg) in HAT reaction buffer (50 mM Tris-HCl pH 8.0, 100 mM NaCl, 10% glycerol, 1 mM DTT, […], and 1× cOmplete EDTA-free Protease Inhibitor Cocktail) at 30°C for 15 min. Reactions were stopped by boiling at 95°C for 5 min in 2×SDS loading buffer, and samples were analyzed by SDS-PAGE and Western blot. […]

p300TAZ2 = experiment: Mass photometry (MP) of GST-EZH2TAD1 with p300TAZ2; assay type: binding, human
Protocol: [37]. Briefly, both ^15N-labeled and unlabeled constructs were expressed in Escherichia coli Rosetta-2 (DE3) pLysS cells grown in either M9 minimal media or TB, both supplemented with 50-150 μM ZnCl2. After induction with isopropyl b-D-1-thiogalactopyranoside (IPTG), harvesting, and lysis in buffer [50 mM Tris pH 7.0, 1 M NaCl, 5 mM dithiothreitol (DTT), 1 mM phenylmethanesulfonylfluoride (PMSF) and DNase] by sonication, the proteins were purified on glutathione agarose beads (Pierce) and eluted with buffer containing reduced L-glutathione (Fisher). The GST tag was either cleaved with TEV protease overnight at 22°C or kept intact during subsequent purification steps. […] Human EZH2[…]3 ([…]) construct with a C-terminal 6×His tag was cloned into a pGEX-6P-1 vector (GenScript). The EZH2TAD1 ([…]) construct was generated by deletion using Q5 Hot Start High-Fidelity kit (NEB) and confirmed by DNA sequencing. Both constructs were expressed in E. coli Rosetta-2 (DE3) pLysS cells grown in LB media and induced at an OD600 of 0.6-0.8 with 1 mM IPTG for 16 h at 16°C. Cells were harvested by centrifugation, suspended in buffer (50 mM Tris pH 7.5, 500 mM NaCl, 1% CHAPS, 2 mM DTT, 1 mM PMSF, Roche cOmplete Protease Inhibitor Cocktail, and DNase), and lysed by sonication. […] When necessary, EZH2TAD constructs were further purified using a Superdex 200 Increase 10/300 GL column (Cytiva) with monitoring at 205 and 280 nm. Mass Photometry […] To overcome the minimum size limit, a GST-fusion construct was used for one of the components in each sample. […] Ten microliter of each sample was loaded into the sample wells of the silicon cassettes assembled onto MassGlass UC coverslips (Refeyn, Ltd.). Measurements were performed at room temperature in buffer (50 mM Tris pH 7.5, 150 mM NaCl, 5 mM DTT). β-amylase was used as calibration standard (56 kDa, 112 kDa, and 224 kDa). After the focus was set and locked, movies were captured for 60 s (2800 frames) using AcquireMP software (Refeyn Ltd). Data were processed using DiscoverMP (Refeyn Ltd).

What does the source list for “EZH2TAD1-TAD2-TAD3: recombinant human EZH2 aa 142–231 construct with a C-terminal 6×His tag, used in mass photometry”?
MP peak of complex with GST-p300TAZ2 (GST-p300TAZ2; 20 nM GST-p300TAZ2 + 1 μM EZH2TAD1-TAD2-TAD3, room temperature, 50 mM Tris pH 7.5, 150 mM NaCl, 5 mM DTT): ~ 224 kDa; stoichiometry of the complex with GST-p300TAZ2 (GST-p300TAZ2; from MP peak, 20 nM GST-p300TAZ2, EZH2TAD1-TAD2 5 μM or EZH2TAD1-TAD2-TAD3 1 μM): six molecules of GST-p300TAZ2 and one molecule of EZH2TAD1-TAD2-TAD3

For NDEIFVELVNALGQYNDDD [EZH2TAD2], which Kd [1] is on record?
The Kd was 310 nM.

With “EZH2 WT: GST-tagged EZH2TAD1-TAD2-TAD3 (aa 119–267)” as the substance, how does the “H3K18 acetylation by p300 core” value ([2]; H3K18ac Western blot) read?
The value was “dose-dependent increase in H3K18 and H3K27 acetylation”.

What about the “H3K27 acetylation by p300 core” value ([2]; H3K27ac Western blot) of the same substance?
The value was “dose-dependent increase in H3K18 and H3K27 acetylation”.

Which “shift of the MP peak upon addition of p300TAZ2” value (p300TAZ2; 20 nM GST-EZH2TAD1, 0.1 μM p300TAZ2) does the source give for “GST-EZH2TAD1: recombinant GST-tagged EZH2TAD1 (aa 142–160) construct (DGTFIEELIKNYDGKVHGD-His6; also: GST tag, end not given here)” here?
Its value is ~ 14 kDa.

What about the “oligomeric state in the apo-state” value (p300TAZ2; 20 nM GST-EZH2TAD1 alone) of the same substance?
Its value is “formed a dimer in the apo-state”.

What about the “MP peak, apo GST-EZH2TAD1” value (p300TAZ2; 20 nM GST-EZH2TAD1 alone, room temperature, 50 mM Tris pH 7.5, 150 mM NaCl, 5 mM DTT) of the same substance?
Its value is ~ 70 kDa.

And the “oligomeric state / stoichiometry of GST-EZH2TAD1 complexes” value (p300TAZ2; 20 nM GST-EZH2TAD1 with 0.1 μM p300TAZ2)?
The value was “dimeric GST-EZH2TAD1 bound by one molecule of p300TAZ2 and by two molecules of p300TAZ2”.

For SDKIFEAISSMF [EZH2TAD3], which Kd [1] is on record?
Its Kd is 520 ± 60 nM.

DGTFIEELIKNYD [EZH2TAD1] was tested. Which Kd [1] did it give?
Its Kd is 530 ± 80 nM.
